Assay results: ChEMBL document CHEMBL1123283, “Quinazoline antifolates inhibiting thymidylate synthase: variation of the amino acid” (1986)

Key:
L1210 = assay: Inhibitory dose for L1210 cells in culture. Not tested at higher concentrations because of their limited solubility; format: functional; details: Mus musculus, read-out: ID50 (the source's name)
[1] = molecular target: Thymidylate synthase (Mus musculus) (UniProt P07607)
Sequence of Thymidylate synthase (Mus musculus) (P07607 whole entry, looked up): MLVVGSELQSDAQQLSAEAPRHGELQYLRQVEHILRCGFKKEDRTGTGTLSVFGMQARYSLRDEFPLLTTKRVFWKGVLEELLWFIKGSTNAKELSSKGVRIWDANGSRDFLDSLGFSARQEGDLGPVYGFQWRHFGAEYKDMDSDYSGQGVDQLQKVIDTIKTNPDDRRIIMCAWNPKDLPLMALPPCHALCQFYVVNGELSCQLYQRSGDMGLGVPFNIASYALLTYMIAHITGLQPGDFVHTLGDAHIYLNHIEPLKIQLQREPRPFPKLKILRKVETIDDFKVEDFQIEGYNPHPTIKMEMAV
Description: Inverse relative potency for the inhibition of L1210 thymidylate synthase

| IC50 (L1210) [µM] | Potency [1] | SMILES |
| --- | --- | --- |
| > 200 | 84 | C#CCN(Cc1ccc2nc(N)nc(O)c2c1)c1ccc(C(=O)O)cc1 |
| > 137 | 8.9 | C#CCN(Cc1ccc2nc(N)nc(O)c2c1)c1ccc(C(=O)NC(CC(=O)O)C(=O)O)cc1 (stereo not drawn) |
| 52 | > 62 | C#CCN(Cc1ccc2nc(N)nc(O)c2c1)c1ccc(C(=O)NC(CCC(=O)OCC)C(=O)OCC)cc1 (stereo not drawn) |
| > 10 | 5.2 | C#CCN(Cc1ccc2nc(N)nc(O)c2c1)c1ccc(C(=O)NC(C)C(=O)O)cc1 (stereo not drawn) |
| > 100 | 20.7 | C#CCN(Cc1ccc2nc(N)nc(O)c2c1)c1ccc(C(=O)NCC(=O)O)cc1 |
| > 10 | 333 | C#CCN(Cc1ccc2nc(N)nc(O)c2c1)c1ccc(CCCC(=O)O)cc1 |
| 5 | – | C#CCN(Cc1ccc2[nH]c(N)nc(=O)c2c1)c1ccc(C(=O)NC(CCC(=O)O)C(=O)O)cc1 (stereo not drawn) |
